Assay results from paper PMC10030409 (Investigational New Drugs, 2023).
Read-outs that look alike come from different tables or passages of the source.

Assays:
[1] = clinical; details: human, in vivo
[2] = Osimertinib AUC0-24 <4938 ng/mL*h, n = 29, any grade
[3] = Osimertinib AUC0-24 <4938 ng/mL*h, n = 29, grade ≥2
[4] = Osimertinib AUC0-24 ≥4938 ng/mL*h, n = 22, any grade
[5] = Osimertinib AUC0-24 ≥4938 ng/mL*h, n = 22, grade ≥2

C=CC(=O)Nc1cc(Nc2nccc(-c3cn(C)c4ccccc34)n2)c(OC)cc1N(C)CCN(C)C [osimertinib]
Association between AUC0–24 and grade ≥ 2 increased creatinine (Mann–Whitney U test): significant association | Anorexia, % of patients [2]: (10.3) % | Anorexia, No. of patients [2]: 3 | Any adverse events, % of patients [2]: (100.0) % | Any adverse events, No. of patients [2]: 29 | Creatinine increased, % of patients [2]: (44.8) % | Creatinine increased, No. of patients [2]: 13 | Diarrhea, % of patients [2]: (58.6) % | Diarrhea, No. of patients [2]: 17 | Interstitial lung disease, % of patients [2]: (0.0) % | Interstitial lung disease, No. of patients [2]: 0 | Paronychia, % of patients [2]: (37.9) % | Paronychia, No. of patients [2]: 11 | Anorexia, % of patients [3]: (6.90) % | Anorexia, No. of patients [3]: 2 | Any adverse events, % of patients [3]: (69.0) % | Any adverse events, No. of patients [3]: 20 | Creatinine increased, % of patients [3]: (0.0) % | Creatinine increased, No. of patients [3]: 0 | Diarrhea, % of patients [3]: (0.0) % | Diarrhea, No. of patients [3]: 0 | Interstitial lung disease, % of patients [3]: (0.0) % | Interstitial lung disease, No. of patients [3]: 0 | Paronychia, % of patients [3]: (27.6) % | Paronychia, No. of patients [3]: 8 | Anorexia, % of patients [4]: (18.2) % | Anorexia, No. of patients [4]: 4 | Any adverse events, % of patients [4]: (100.0) % | Any adverse events, No. of patients [4]: 22 | Creatinine increased, % of patients [4]: (50.0) % | Creatinine increased, No. of patients [4]: 11 | Diarrhea, % of patients [4]: (45.5) % | Diarrhea, No. of patients [4]: 10 | Interstitial lung disease, % of patients [4]: (4.5) % | Interstitial lung disease, No. of patients [4]: 1 | Paronychia, % of patients [4]: (54.5) % | Paronychia, No. of patients [4]: 12 | Anorexia, % of patients [5]: (13.6) % | Anorexia, No. of patients [5]: 3 | Any adverse events, % of patients [5]: (95.5) % | Any adverse events, No. of patients [5]: 21 | Creatinine increased, % of patients [5]: (18.2) % | Creatinine increased, No. of patients [5]: 4 | Diarrhea, % of patients [5]: (13.6) % | Diarrhea, No. of patients [5]: 3 | Interstitial lung disease, % of patients [5]: (4.5) % | Interstitial lung disease, No. of patients [5]: 1 | Paronychia, % of patients [5]: (27.3) % | Paronychia, No. of patients [5]: 6 | Sensitivity of AUC0–24 cut-off for grade ≥ 2 AEs (ROC curve): 51% | Specificity of AUC0–24 cut-off for grade ≥ 2 AEs (ROC curve): 90% | AUC(0-t) [1]: 5530 ng·h/mL
